Results published in patent publication US20120238762A1, “AZOLE DERIVATIVES AND METHODS FOR PRODUCING THE SAME, INTERMEDIATE COMPOUNDS FOR THE DERIVATIVES AND METHODS FOR PRODUCING THE SAME, AND AGRO-HORTICULTURAL AGENTS AND INDUSTRIAL MATERIAL PROTECTING AGENTS CONTAINING THE DERIVATIVES” (KUREHA CORPORATION, priority 2009, published 2012).

Tests used:
[1] = tested on: various phytopathogenic fungi for plants and hazardous microorganism for industrial materials; assay: microbe, parasite or virus in culture; format: cell-based; set-up: dose or concentration left out as unconfirmed
[2] = Mycelial growth inhibition on plate medium against industrial material deteriorating microorganisms, treatment at 50 mg/l; conditions: read-out: Growth inhibition grade
Method: Compound (I) was dissolved in 2 ml of dimethyl sulfoxide. 0.6 ml of this solution was added to 60 ml of a PDA medium (potato dextrose agar medium) and at about 60 degrees C., which was mixed thoroughly in a 100-ml conical flask, and poured into a dish, where it was solidified, thereby obtaining a plate medium containing the inventive compound at a certain concentration.
On the other hand, a subject microorganism previously cultured on a plate medium was cut out using a cork borer whose diameter was 4 mm, and inoculated to the test compound-containing plate medium described above. […] The growth degree of the microorganism on the test compound-containing plate medium was compared with the growth degree of the microorganism in the untreated group, and % mycelial growth inhibition was calculated by the following equation.
wherein R=% mycelial extension inhibition, dc=flora diameter in untreated plate, dt=flora diameter in treated plate.
The results obtained were evaluated as one of the 5 grades in accordance with the following criteria.
<Growth Inhibition Grade>
4: % Mycerial growth inhibition of less than 80 to 60% or higher
3: % Mycerial growth inhibition of less than 60 to 40% or higher
2: % Mycerial growth inhibition of less than 40 to 20% or higher

[3] = Alternaria alternata, read-out: Growth inhibition grade, A.m
[4] = Fusarium graminearum, read-out: Growth inhibition grade, F.g
[5] = Parastagonospora nodorum, read-out: Growth inhibition grade, P.n
[6] = Pyricularia oryzae, read-out: Growth inhibition grade, P.o
[7] = Rhynchosporium secalis, read-out: Growth inhibition grade, R.sec
[8] = Sclerotinia sclerotiorum, read-out: Growth inhibition grade, S.s
[9] = Ustilago nuda, read-out: Growth inhibition grade, U.n
[10] = read-out: Growth inhibition grade, B.c
[11] = read-out: Growth inhibition grade, F.c
[12] = read-out: Growth inhibition grade, G.f
[13] = read-out: Growth inhibition grade, P.h

Row | SMILES | inhibition [1, 3] | inhibition [1, 4] | inhibition [1, 5] | inhibition [1, 6] | inhibition [1, 7] | inhibition [1, 8] | inhibition [1, 9] | inhibition [1, 10] | inhibition [1, 11] | inhibition [1, 12] | inhibition [1, 13] | inhibition at 50 µg/mL [2] | melting point
1 | OC(Cn1cncn1)(C1CC1(Cl)Cl)C1(Cl)CC1 (single isomer, unassigned) [I-2a, 1-(1-chlorocyclopropyl)-1-(2,2-dichlorocyclopropyl)-2-(1H-1,2,4-triazol-1-yl)ethanol] | > 80% | > 80% | > 80% | > 80% | > 80% | > 80% | > 80% | > 80% | > 80% | > 80% | > 80% | 60 to 80% | –
2 | OC(CC1CC1(Br)Br)(Cn1cncn1)C1(Cl)CC1 (single isomer, unassigned) [I-210a, 2-(1-chlorocyclopropyl)-1-(2,2-dibromocyclopropyl)-3-(1H-1,2,4-triazol-1-yl)propan-2-ol] | > 80% | > 80% | > 80% | > 80% | > 80% | > 80% | > 80% | > 80% | > 80% | > 80% | > 80% | 60 to 80% | 114 °C
3 | OC(CC1CC1(Cl)Cl)(CC1CC1(Cl)Cl)Cn1cncn1 (single isomer, unassigned) [I-277a, 1,3-bis(2,2-dichlorocyclopropyl)-2-(1H-1,2,4-triazol-1-ylmethyl)propan-2-ol] | – | – | – | – | – | – | – | – | – | – | – | – | 114 to 115 °C
4 | OC(CC1CC1(Cl)Cl)(CC1CC1(Cl)Cl)Cn1cncn1 (single isomer, unassigned) [I-277b, 1,3-bis(2,2-dichlorocyclopropyl)-2-(1H-1,2,4-triazol-1-ylmethyl)propan-2-ol] | – | – | – | – | – | – | – | – | – | – | – | – | 105 to 106.5 °C
5 | OC(CCC1CC1(Cl)Cl)(Cn1cncn1)C1(Cl)CC1 (single isomer, unassigned) [I-607a, 2-(1-chlorocyclopropyl)-4-(2,2-dichlorocyclopropyl)-1-(1H-1,2,4-triazol-1-yl)butan-2-ol] | > 80% | > 80% | > 80% | > 80% | > 80% | > 80% | > 80% | > 80% | > 80% | > 80% | > 80% | – | 130 to 131 °C
6 | OC(CCC1CC1(Cl)Cl)(Cn1cncn1)C1(Cl)CC1 (single isomer, unassigned) [I-607b, 2-(1-chlorocyclopropyl)-4-(2,2-dichlorocyclopropyl)-1-(1H-1,2,4-triazol-1-yl)butan-2-ol] | – | – | – | – | – | – | – | – | – | – | – | 60 to 80% | 83 to 84 °C
